Reference: US11779559B2, “Compositions for treating fungal and bacterial biofilms and methods of using the same” (priority 2017, dated 2023)
Where two headings read alike, the source gives them in different places.

What was measured:
[1] = system: C. albicans; test: Disruption biofilm assay, fungal; assay type: cell-based, Candida albicans
Description: (§1) Two types of biofilm assays were performed: a sustained inhibition assay and a disruption assay. The sustained inhibition assay assesses the compound's ability to prevent biofilm development throughout all stages of biofilm formation, while the disruption assay assesses the compound's ability to break up an existing mature biofilm. These assays are described in detail in the following article: Lohse, M. B., Gulati, M., Valle Arevalo, A., Fishburn, A., Johnson, A. D., and Nobile, C. […] Antimicrobial Agents and Chemotherapy 61: e02749-16.
(§2) All bacterial biofilm solutions were prepared in Trypic Soy Broth (TSB), supplemented with 1% glucose (henceforth referred to as TSB-G). All subsequent procedures were performed in a manner that maintained sterility. A solution of each amino acid to be tested was prepared in weight to volume concentrations ranging from 0.1-5.0%. Amino acids were also tested in combinations. Compound solutions were homogenized with gentle agitation in the dark (4° C., 24 hours) before use.
(§3) Fungal strains were streaked on Yeast Peptone Dextrose (YPD) agar plates and incubated at 30° C. for 48 hours. A single colony from each strain to be tested was inoculated into YPD broth and grown for 12 hours, at 30° C., shaking at 225 rpm. […] The cells were allowed to adhere to the plate for 90 minutes at 37° C. with shaking (350 rpm). […] The plate was further incubated for 24 hours at 37° C. with shaking (350 rpm). Media was carefully aspirated and the biofilm was measured by optical density at 600 nm. […] The cells were allowed to adhere to the plate for 90 minutes at 37° C. with shaking (350 rpm). […] The plate was further incubated for 24 hours at 37° C. with shaking (350 rpm). […] The plate was further incubated for 24 hours at 37° C. with shaking (350 rpm). Media was carefully aspirated and the biofilm was measured by optical density at 600 nm.

[2] = system: S. aureus; test: Disruption biofilm assay, bacterial; assay type: cell-based, Staphylococcus aureus; settings: Staphylococcus aureus; for inhibition at 1 %: 24 h, read-out: Reduce B Biofilm
Description: as §1, §2
(§4) Bacterial strains were streaked on Blood Agar plates (5% sheep blood in Tryptic Soy Agar) and incubated at 37° C. for 24 hours. A single colony from each strain to be tested was inoculated in a TSB broth and grown for 12 hours, at 37° C. with shaking (225 rpm). For the bacterial biofilm inhibition assays, 1 μL of saturated overnight cell culture was added to either 80 μL of TSB-G, or TSB-G supplemented with the amino acid compound solution to be tested, in a 384-well plate. The cells were allowed to adhere to the plate for 60 minutes at 37° C. without shaking. The media was carefully aspirated and 80 μL of TSB-G, or TSB-G supplemented with the amino acid compound solution was added to the plate. The plate was further incubated for 24 hours at 37° C. without shaking. Media was carefully aspirated and the biofilm was measured by optical density at 600 nm. Eight or twelve replicates were performed for each tested condition and the reported values are normalized to the control (TSB-G media only). For the bacterial biofilm disruption assays, 80 μL of TSB-G was added to the plate, along with 1 μL of overnight cell culture. The cells were allowed to adhere to the plate for 60 minutes at 37° C. with no shaking. The media was carefully aspirated and 80 μL of TSB-G was added to the plate. The plate was further incubated for 24 hours at 37° C. with no shaking. Media was carefully aspirated from the mature biofilm and 80 μL of TSB-G, or TSB-G supplemented with the amino acid to be tested, was gently added to the plate. The plate was further incubated for 24 hours at 37° C. without shaking. Media was aspirated and the biofilm was measured by optical density at 600 nm. Twelve replicates were performed for each tested condition and the reported values are normalized to the control (TSB-G media only).

[3] = system: fungal and bacterial biofilms; test: Biofilm assays (sustained inhibition and disruption), fungal and bacterial biofilms; assay type: cell-based
Description: (§5) Two types of biofilm assays were performed: a sustained inhibition assay and a disruption assay. The sustained inhibition assay assesses the compound's ability to prevent biofilm development throughout all stages of biofilm formation, while the disruption assay assesses the compound's ability to break up an existing mature biofilm. These assays are described in detail in the following article: Lohse, M. B., Gulati, M., Valle Arevalo, A., Fishburn, A., Johnson, A. D., and Nobile, C. J. (2017) Assessment and optimizations of Candida albicans in vitro biofilm assays. Antimicrobial Agents and Chemotherapy 61: e02749-16.
as §2, with “For fungal biofilm assays, all solutions were prepared in RPMI 1640 medium. All bacterial” for “All bacterial”
(§6) All biofilm assays were performed using 384-well non-tissue culture treated polystyrene plates. The fungal species tested are as follows: Candida albicans, Candida guilhermondii, Candida parapsilosis, Candida glabrata, Candida tropicalis, Candida dubliniensis, and Candida auris. The bacterial species tested are as follows: Staphylococcus aureus (standard wild type and methicillin-resistant strain USA300), Escherichia coli, Pseudomonas aeruginosa and Staphylococcus epidermidis.
(§7) Fungal strains were streaked on Yeast Peptone Dextrose (YPD) agar plates and incubated at 30° C. for 48 hours. A single colony from each strain to be tested was inoculated into YPD broth and grown for 12 hours, at 30° C., shaking at 225 rpm. For the fungal biofilm inhibition assay, 1 μl of saturated overnight cell culture was added to either 80 μL of RPMI-1640 or RPMI-1640 supplemented with the amino acid compound solution to be tested, in a 384-well plate. The cells were allowed to adhere to the plate for 90 minutes at 37° C. with shaking (350 rpm). Loosely bound cells were washed once with phosphate buffered saline (PBS) and 80 ul of RPMI-1640, or RPMI-1640 supplemented with the amino acid compound solution was added to the plate. The plate was further incubated for 24 hours at 37° C. with shaking (350 rpm). Media was carefully aspirated and the biofilm was measured by optical density at 600 nm. Twelve replicates were performed for each tested condition and the reported values are normalized to the control (RPMI-1640 media only). For the fungal biofilm disruption assays, 80 μL of RPMI-1640 was added to the plate, along with 1 μL of overnight cell culture. The cells were allowed to adhere to the plate for 90 minutes at 37° C. with shaking (350 rpm). Loosely bound cells were washed once with PBS and 80 μL of RPMI-1640 was added to the plate. The plate was further incubated for 24 hours at 37° C. with shaking (350 rpm). Media was carefully aspirated from the mature biofilm and 80 μL of RPMI-1640, or RPMI-1640 supplemented with the amino acid compound solution to be tested, was gently added to the plate. The plate was further incubated for 24 hours at 37° C. with shaking (350 rpm). Media was carefully aspirated and the biofilm was measured by optical density at 600 nm. Twelve replicates were performed for each tested condition and the reported values are normalized to the control (RPMI-1640 media only).
Bacterial strains were streaked on Blood Agar plates (5% sheep blood in Tryptic Soy Agar) and incubated at 37° C. for 24 hours. A single colony from each strain to be tested was inoculated in a TSB broth and grown for 12 hours, at 37° C. with shaking (225 rpm).

[4] = system: bacteria (S. aureus) biofilm and fungal (C. albicans) biofilm; test: Sustained inhibition biofilm assay, bacterial and fungal taken together; assay type: cell-based
Description: as §5
as §2, with “For fungal biofilm assays, all solutions were prepared in RPMI 1640 medium. All bacterial” for “All bacterial”
(§8) Fungal strains were streaked on Yeast Peptone Dextrose (YPD) agar plates and incubated at 30° C. for 48 hours. A single colony from each strain to be tested was inoculated into YPD broth and grown for 12 hours, at 30° C., shaking at 225 rpm. For the fungal biofilm inhibition assay, 1 μl of saturated overnight cell culture was added to either 80 μL of RPMI-1640 or RPMI-1640 supplemented with the amino acid compound solution to be tested, in a 384-well plate. […] Media was carefully aspirated and the biofilm was measured by optical density at 600 nm. […] Media was carefully aspirated and the biofilm was measured by optical density at 600 nm. […]
(§9) Bacterial strains were streaked on Blood Agar plates (5% sheep blood in Tryptic Soy Agar) and incubated at 37° C. for 24 hours. […] Media was carefully aspirated and the biofilm was measured by optical density at 600 nm. […]

[5] = system: C. albicans; test: Sustained inhibition biofilm assay, fungal; assay type: cell-based, Candida albicans
Description: as §1, §2, §3

[6] = system: S. aureus; test: Sustained inhibition biofilm assay, bacterial; assay type: cell-based, Staphylococcus aureus
Description: as §1, §2, §4

[7] = system: bacteria (S. aureus) biofilm and fungal (C. albicans) biofilm; test: Disruption biofilm assay, bacterial and fungal taken together; assay type: cell-based
Description: as §5
as §2, with “For fungal biofilm assays, all solutions were prepared in RPMI 1640 medium. All bacterial” for “All bacterial”
as §8, §9

[8] = system: fungal biofilms; test: Biofilm assays (sustained inhibition and/or disruption), fungal biofilms; assay type: cell-based; settings: in at least one of the two biofilm assays; for Anti-biofilm effect against fungal biofilms (reduction): administered individually
Description: as §5
as §2, with “For fungal biofilm assays, all solutions were prepared in RPMI 1640 medium. All bacterial” for “All bacterial”
as §6, §7

[9] = Thermal stability in hot aqueous solution; assay type: physicochemical; settings: water at about 90° C. to 100° C.
Description: This ingredient is the non-essential amino acid glutamine.

[10] = system: bacterial biofilms; test: Biofilm assays (sustained inhibition and/or disruption), bacterial biofilms; assay type: cell-based; settings: in at least one of the two biofilm assays
Description: as §5
as §2, with “For fungal biofilm assays, all solutions were prepared in RPMI 1640 medium. All bacterial” for “All bacterial”
as §6, §4

[11] = disruption assay, S. aureus, 1% amino acid (unless specifically noted), p≤0.001
[12] = sustained inhibition assay, C. albicans, 1% amino acid (unless specifically noted), p≤0.001
[13] = disruption assay, C. albicans, 1% amino acid (unless specifically noted), p≤0.001

N[C@@H](CCC(=O)O)C(=O)O [Glutamic Acid, L-glutamic acid]
Reduce F Biofilm [1]: ●● (two dots [ie. ••] signifies major effect (greater than about 30% change))
inhibition at 1 % [2]: > 30%
Effect on biofilms ([3]; single component on its own): very active against biofilms
Reduce Both [4]: ●● (two dots [ie. ••] signifies major effect (greater than about 30% change))
Reduce F Biofilm [5]: ●● (two dots [ie. ••] signifies major effect (greater than about 30% change))
Reduce B Biofilm [6]: ●● (two dots [ie. ••] signifies major effect (greater than about 30% change))
Reduce Both [7]: ●● (two dots [ie. ••] signifies major effect (greater than about 30% change))

CC(C)[C@H](N)C(=O)O [Valine, L-valine]
inhibition at 1 % [2, 11]: 10 to 30%
Effect on fungal biofilm growth [8]: support (improve) fungal biofilm growth
Promote F Biofilm [5, 12]: ● (a single dot [ie. •] signifies minor effect (from about 10 to about 30% change))

Cn1cncc1C[C@H](N)C(=O)O [3-Methylhistidine, 3-methyl-L-histidine]
inhibition at 1 % [2, 11]: 10 to 30%
Effect on fungal biofilm growth [8]: support (improve) fungal biofilm growth
Promote F Biofilm [5, 12]: ● (a single dot [ie. •] signifies minor effect (from about 10 to about 30% change))

NCCO [Ethanolamine, ethanolamine]
Anti-biofilm effect against fungal biofilms (reduction) [8]: less than twofold
Reduce F Biofilm [5, 12]: ● (a single dot [ie. •] signifies minor effect (from about 10 to about 30% change))

N[C@@H](COP(=O)(O)O)C(=O)O [Phosphoserine, O-phospho-L-serine]
Reduce F Biofilm [1, 13]: ● (a single dot [ie. •] signifies minor effect (from about 10 to about 30% change))
inhibition at 1 % [2, 11]: 10 to 30%
Anti-biofilm effect against fungal biofilms (reduction) [8]: less than twofold

N[C@@H](CS)C(=O)O [Cysteine, L-cysteine]
Reduce F Biofilm [1, 13]: ●● (two dots [ie. ••] signifies major effect (greater than about 30% change))
inhibition at 1 % [2, 11]: > 30%
Reduce Both ([4]; sustained inhibition assay, bacterial and fungal biofilm, 1% amino acid (unless specifically noted), p≤0.001): ●● (two dots [ie. ••] signifies major effect (greater than about 30% change))
Reduce F Biofilm [5, 12]: ●● (two dots [ie. ••] signifies major effect (greater than about 30% change))
Reduce B Biofilm ([6]; sustained inhibition assay, S. aureus, 1% amino acid (unless specifically noted), p≤0.001): ●● (two dots [ie. ••] signifies major effect (greater than about 30% change))
Reduce Both ([7]; disruption assay, bacterial and fungal biofilm, 1% amino acid (unless specifically noted), p≤0.001): ●● (two dots [ie. ••] signifies major effect (greater than about 30% change))

NC(=O)CC[C@H](N)C(=O)O [Glutamine, L-glutamine]
Effect on bacterial or fungal biofilms in both assays ([3]; sustained inhibition and disruption): neutral
Thermal degradation in aqueous solution [9]: highly susceptible to thermal degradation

O=C(O)[C@@H]1CCCN1 [Proline, L-proline]
Reduce F Biofilm [1, 13]: ● (a single dot [ie. •] signifies minor effect (from about 10 to about 30% change))
activation at 1 % ([2]; disruption assay, S. aureus, 1% amino acid (unless specifically noted), p≤0.001, read-out: Promote B Biofilm): 10 to 30%
Anti-biofilm effect against fungal biofilms (reduction) [8]: less than twofold
Effect on bacterial biofilm growth [10]: support (improve) bacterial biofilm growth
